The numbers were not newly measured in paper PMC5501742 (Cancer discovery, 2017), which cites them from elsewhere.

The conditions of the data set: cited from earlier work.

As for `Nc1cc(C(F)(F)F)c(-c2cc(N3CCOCC3)nc(N3CCOCC3)n2)cn1` [Buparlisib], the “frequent treatment-related AEs” value is “rash, hyperglycemia, diarrhea, and mucositis”.
